ChEMBL document CHEMBL5214990, “Novel Aryl Alkamidazole Derivatives as Multifunctional Antifungal Inhibitors: Design, Synthesis, and Biological Evaluation” (J Med Chem, 2022)
In brackets after ≈: the same amount, converted by molar mass. Activity calls are given as the source filed them. No cut-off for these calls is given here.

What was measured:
Candida albicans [1] = experiment: Antifungal activity against Candida albicans ATCC SC5314 assessed as inhibition of fungal growth measured after 72 hrs by CLSI based liquid medium dilution method; assay type: functional
Cryptococcus neoformans = experiment: Antifungal activity against Cryptococcus neoformans assessed as inhibition of fungal growth measured after 72 hrs by CLSI based liquid medium dilution method; assay type: functional
Candida tropicalis = experiment: Antifungal activity against Candida tropicalis ATCC 1369 assessed as inhibition of fungal growth measured after 72 hrs by CLSI based liquid medium dilution method; assay type: functional
Aspergillus fumigatus = experiment: Antifungal activity against Aspergillus fumigatus KM8001 assessed as inhibition of fungal growth measured after 72 hrs by CLSI based liquid medium dilution method; assay type: functional
Candida albicans [2] = experiment: Antifungal activity against fluconazole-resistant Candida albicans CaR assessed as inhibition of fungal growth measured after 72 hrs by CLSI based liquid medium dilution method; assay type: functional
Candida albicans [3] = experiment: Antifungal activity against fluconazole-resistant Candida albicans 632 assessed as inhibition of fungal growth measured after 72 hrs by CLSI based liquid medium dilution method; assay type: functional
Candida albicans [4] = experiment: Antifungal activity against fluconazole-resistant Candida albicans 901 assessed as inhibition of fungal growth measured after 72 hrs by CLSI based liquid medium dilution method; assay type: functional
Candida albicans [5] = experiment: Antifungal activity against Candida albicans assessed as inhibition of fungal cell proliferation by measuring decrease in fungal cell density measured after 24 hrs; assay type: functional, organism-based
Candida albicans [6] = experiment: Induction of mitochondrial membrane depolarization in Candida albicans assessed as fungal cells with depolarized mitochondria measured after 24 hrs by JC-1 staining based flow cytometry (reference value: 3.22%); assay type: functional
Candida albicans [7] = experiment: Induction of mitochondrial membrane depolarization in Candida albicans assessed as fungal cells with intact mitochondria measured after 24 hrs by JC-1 staining based flow cytometry (reference value: 95.9%); assay type: functional
[8] = target: T1, Lanosterol 14-alpha demethylase (Candida albicans (strain SC5314 / ATCC MYA-2876) (Yeast), UniProt P10613); experiment: Inhibition of CYP51 in Candida albicans ATCC SC5314 assessed as ergosterol content at 4 ug/ml measured after 48 hrs by GC-MS analysis (reference value: 95.61%); design: scale not given: the % may be the effect or the level left; details: at 4 µg/mL
[9] = target: T1, Lanosterol 14-alpha demethylase; experiment: Inhibition of CYP51 in Candida albicans ATCC SC5314 assessed as lanosterol content at 4 ug/ml measured after 48 hrs by GC-MS analysis; design: scale not given: the % may be the effect or the level left; details: at 4 µg/mL
[10] = target: T1, Lanosterol 14-alpha demethylase; experiment: Inhibition of CYP51 in Candida albicans ATCC SC5314 assessed as eburicol content at 4 ug/ml measured after 48 hrs by GC-MS analysis (reference value: 1.84%); design: scale not given: the % may be the effect or the level left; details: at 4 µg/mL
[11] = target: T1, Lanosterol 14-alpha demethylase; experiment: Inhibition of CYP51 in Candida albicans ATCC SC5314 assessed as unknown sterol content at 4 ug/ml measured after 48 hrs by GC-MS analysis; design: scale not given: the % may be the effect or the level left; details: at 4 µg/mL
Candida albicans [12] = experiment: Antifungal activity against Candida albicans infected in mouse assessed as increase in animal's body weight at 20 mg/kg, ip administered on days 2,4,6,8,10,12 and measured on day 14; assay type: functional, organism-based; details: time 13.0 day
Candida albicans [13] = experiment: Antifungal activity against Candida albicans infected in mouse assessed as reduction in fungal endogenous infection symptoms at 20 mg/kg, ip administered on days 2,4,6,8,10,12 and measured on day 14 by GMS staining based analysis; assay type: functional, organism-based; details: time 13.0 day
Candida albicans [14] = experiment: Antifungal activity against Candida albicans infected in mouse assessed as reduction in fungal proliferation in the infection region at 20 mg/kg, ip administered on days 2,4,6,8,10,12 and measured on day 14 by GMS staining based analysis; assay type: functional, organism-based; details: time 13.0 day
Candida albicans [15] = experiment: Antifungal activity against Candida albicans infected in mouse assessed as reduction in total amount of fungal cells in infection region at 20 mg/kg, ip administered on days 2,4,6,8,10,12 and measured on day 14 by GMS staining based analysis; assay type: functional, organism-based; details: time 13.0 day
Candida albicans [16] = experiment: Antifungal activity against Candida albicans infected in mouse assessed as disappearance of nuclear aggregation in the infection region at 20 mg/kg, ip administered on days 2,4,6,8,10,12 and measured on day 14 by GMS staining based analysis; assay type: functional, organism-based; details: time 13.0 day
Candida albicans [17] = experiment: Antifungal activity against Candida albicans infected in mouse assessed as reduction in necrotic cell fragments in intercellular spaces of the infection region at 20 mg/kg, ip administered on days 2,4,6,8,10,12 and measured on day 14 by GMS staining based analysis; assay type: functional, organism-based; details: time 13.0 day
Candida albicans [18] = experiment: Antifungal activity against Candida albicans infected in mouse assessed as reduction in fungal endogenous infection symptoms at 20 mg/kg, ip administered on days 2,4,6,8,10,12 and measured on day 14 by hematoxylin-eosin staining based analysis; assay type: functional, organism-based; details: time 13.0 day
Candida albicans [19] = experiment: Antifungal activity against Candida albicans infected in mouse assessed as reduction in fungal proliferation in the infection region at 20 mg/kg, ip administered on days 2,4,6,8,10,12 and measured on day 14 by hematoxylin-eosin staining based analysis; assay type: functional, organism-based; details: time 13.0 day
Candida albicans [20] = experiment: Antifungal activity against Candida albicans infected in mouse assessed as reduction in total amount of fungal cells in infection region at 20 mg/kg, ip administered on days 2,4,6,8,10,12 and measured on day 14 by hematoxyin-eosin staining based analysis; assay type: functional, organism-based; details: time 13.0 day
Candida albicans [21] = experiment: Antifungal activity against Candida albicans infected in mouse assessed as disappearance of nuclear aggregation in the infection region at 20 mg/kg, ip administered on days 2,4,6,8,10,12 and measured on day 14 by hematoxyin-eosin staining based analysis; assay type: functional, organism-based; details: time 13.0 day
[22] = Hepatotoxicity in mouse infected with Candida albicans assessed as plasma AST level at 20 mg/kg, ip administered on days 2,4,6,8,10,12 and measured on day 14 (reference value: 53.4 +/-6.8 IU/L); assay type: toxicity, organism-based; details: in vivo, 312 h, time 13 day
[23] = Renal toxicity in mouse infected with Candida albicans assessed as blood urea nitrogen level at 20 mg/kg, ip administered on days 2,4,6,8,10,12 and measured on day 14 (reference value: 16.2 +/-1.6 mmol/L); assay type: organism-based; details: in vivo, 312 h, time 13 day
Mus musculus [24] = experiment: Anti-inflammatory activity in mouse infected with Candida albicans assessed as reduction in COX-2 expression in infection tissues at 20 mg/kg, ip administered on days 2,4,6,8,10,12 and measured on day 14 by western blot analysis; assay type: functional, organism-based; details: time 13.0 day
Mus musculus [25] = experiment: Anti-inflammatory activity in mouse infected with Candida albicans assessed as reduction in NF-kappaB p65 expression in infection tissues at 20 mg/kg, ip administered on days 2,4,6,8,10,12 and measured on day 14 by western blot analysis; assay type: functional, organism-based; details: time 13.0 day
Mus musculus [26] = experiment: Anti-inflammatory activity in mouse infected with Candida albicans assessed as reduction in NLRP3 expression in infection tissues at 20 mg/kg, ip administered on days 2,4,6,8,10,12 and measured on day 14 by western blot analysis; assay type: functional, organism-based; details: time 13.0 day
Mus musculus [27] = experiment: Anti-inflammatory activity in mouse infected with Candida albicans assessed as reduction in NF-kappaB p65 expression in spleen at 20 mg/kg, ip administered on days 2,4,6,8,10,12 and measured on day 14 by immunohistochemical analysis; assay type: functional, organism-based; details: time 13.0 day
Mus musculus [28] = experiment: Anti-inflammatory activity in mouse infected with Candida albicans assessed as reduction in PD-L1 expression in infection tissue at 20 mg/kg, ip administered on days 2,4,6,8,10,12 and measured on day 14 by western blot analysis; assay type: functional, organism-based; details: time 13.0 day

T1 sequence (P10613 whole entry): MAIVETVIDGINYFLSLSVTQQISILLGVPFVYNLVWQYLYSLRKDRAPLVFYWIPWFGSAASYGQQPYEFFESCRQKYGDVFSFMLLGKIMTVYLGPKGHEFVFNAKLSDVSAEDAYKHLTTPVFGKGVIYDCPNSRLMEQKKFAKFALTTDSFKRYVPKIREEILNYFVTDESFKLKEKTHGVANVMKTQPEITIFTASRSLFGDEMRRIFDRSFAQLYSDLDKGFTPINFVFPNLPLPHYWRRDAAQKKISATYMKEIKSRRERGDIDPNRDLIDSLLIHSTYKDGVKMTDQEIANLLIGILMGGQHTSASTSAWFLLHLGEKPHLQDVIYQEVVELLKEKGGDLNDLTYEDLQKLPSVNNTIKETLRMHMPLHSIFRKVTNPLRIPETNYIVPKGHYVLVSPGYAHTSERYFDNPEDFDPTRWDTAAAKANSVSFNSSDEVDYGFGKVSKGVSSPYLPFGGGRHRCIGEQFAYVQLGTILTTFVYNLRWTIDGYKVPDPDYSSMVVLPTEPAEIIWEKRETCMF

Compound	MIC50 (Candida albicans [1])	MIC50 (Cryptococcus neoformans)	MIC50 (Candida tropicalis)	MIC50 (Aspergillus fumigatus)	MIC50 (Candida albicans [2])	MIC50 (Candida albicans [3])	MIC50 (Candida albicans [4])	Activity (Candida albicans [5])	Activity (Candida albicans [6])	Activity (Candida albicans [7])	Activity [8]	Activity [9]	Activity [10]	Activity [11]	Activity (Candida albicans [12])	Activity (Candida albicans [13])	Activity (Candida albicans [14])	Activity (Candida albicans [15])	Activity (Candida albicans [16])	Activity (Candida albicans [17])	other results
C[C@H](C(=O)N(C)CC(O)(Cn1ccnc1)c1ccc(Cl)cc1Cl)c1cccc(C(=O)c2ccccc2)c1 (stereo partly drawn)	0.125 µg/mL (≈ 0.233 µM)	0.25 µg/mL (≈ 0.466 µM)	0.25 µg/mL (≈ 0.466 µM)	2 µg/mL (≈ 3.73 µM)	1 µg/mL (≈ 1.86 µM)	2 µg/mL (≈ 3.73 µM)	0.5 µg/mL (≈ 0.932 µM)	Active	66.6%	53.1%	7.95%	38.57%	50.87%	2.61%	Active	Active	Active	Active	Active	Active	Activity (Candida albicans [18]): Active; Activity (Candida albicans [19]): Active; Activity (Candida albicans [20]): Active; Activity (Candida albicans [21]): Active; Activity [22]: 66.5 IU/L; Activity [23]: 17 mmol/L; Activity (Mus musculus [24]): Active; Activity (Mus musculus [25]): Active; Activity (Mus musculus [26]): Active; Activity (Mus musculus [27]): Active; Activity (Mus musculus [28]): Active
C[C@H](C(=O)N(C)CC(O)(Cn1ccnc1)c1ccc(Cl)cc1)c1ccc(-c2ccccc2)c(F)c1 (stereo partly drawn)	0.125 µg/mL (≈ 0.254 µM)	0.5 µg/mL (≈ 1.02 µM)	0.25 µg/mL (≈ 0.508 µM)	2 µg/mL (≈ 4.07 µM)	1 µg/mL (≈ 2.03 µM)	4 µg/mL (≈ 8.13 µM)	0.5 µg/mL (≈ 1.02 µM)	Active	67.3%	32.6%	13.51%	39.74%	43.28%	3.47%	Active	Active	Active	Active	Active	Active	Activity (Candida albicans [18]): Active; Activity (Candida albicans [19]): Active; Activity (Candida albicans [20]): Active; Activity (Candida albicans [21]): Active; Activity [22]: 69.5 IU/L; Activity [23]: 20.5 mmol/L; Activity (Mus musculus [24]): Active; Activity (Mus musculus [25]): Active; Activity (Mus musculus [26]): Active; Activity (Mus musculus [27]): Active; Activity (Mus musculus [28]): Active
OC(Cn1cncn1)(Cn1cncn1)c1ccc(F)cc1F [FLUCONAZOLE]	0.5 µg/mL (≈ 1.63 µM)	0.5 µg/mL (≈ 1.63 µM)	0.5 µg/mL (≈ 1.63 µM)	> 8 µg/mL	> 8 µg/mL	> 8 µg/mL	> 8 µg/mL	Active	19.1%	60.8%	20.57%	35.17%	40.17%	4.09%	Active	Active	Active	Active	Active	Active	Activity (Candida albicans [18]): Active; Activity (Candida albicans [19]): Active; Activity (Candida albicans [20]): Active; Activity (Candida albicans [21]): Active; Activity [22]: 80.5 IU/L; Activity [23]: 24.4 mmol/L; Activity (Mus musculus [24]): Active; Activity (Mus musculus [25]): Active; Activity (Mus musculus [26]): Active; Activity (Mus musculus [27]): Active; Activity (Mus musculus [28]): Active
